“And” between values parts separate entries of the source, which are not always exact repeats. Identical values can stand only once. Like-named read-outs stand apart in the source and are kept apart here.
Key:
[1] = test system: lactic acid bacteria (LAB); experiment: Inactivation of LAB in molasses at pH 4.2 and 5.4 (Examples 2 and 3); assay type: cell-based
Description: Molasses (B&G Foods, Inc., Roseland, N.J.) was diluted 1 to 3.1 with water and sterilized as in Example 1. The prepared molasses was then divided into two lots and pH-adjusted using sulfuric acid to approximately pH 4.2 and 5.4, respectively. Cultures of LAB were prepared as in Example 1 and inoculated into the molasses to give approximately 1×10^6 CFU/ml. Sodium percarbonate (Alfa Aesar, Ward Hill, Mass.) was added to give 250, 500, and 750 ppm. […] Levels of LAB were enumerated by dilution and plating onto the surface of MRS agar followed by incubation at 32° C. LAB were enumerated at approximately 2 and 24 hours after the addition of sodium percarbonate.
Molasses was prepared as above and adjusted to pH 4.2 and 5.4 using sulfuric acid. Cultures of lactic acid bacteria were prepared as indicated in Example 1 and inoculated into the molasses to give approximately 10E6 CFU/ml. Levels of bacteria were confirmed by plating serial dilutions of the inoculated molasses onto the surface of MRS agar plates as in Example 1. Calcium peroxide was added at the levels indicated. Bacterial levels were enumerated at 2 and 24 hours following addition as described above.

[2] = Stability of peroxygen-releasing compounds during storage at 40° C., iodometric titration of hydrogen peroxide (Example 4); assay type: physicochemical
Description: A dry oven was used to store samples of the peroxygen-releasing compounds at 40° C. The oven was allowed to equilibrate overnight. Two-gram duplicate samples of each of the following peroxygen-releasing compounds were dispensed into aluminum weighing dishes: sodium percarbonate (Alfa Aesar, Ward Hill, Mass.), sodium percarbonate FB 400 (Solvay Chemicals, Inc., Houston, Tex.), sodium percarbonate FB […] (Solvay Chemicals, Inc.), calcium peroxide (Sigma-Aldrich Co., St. […] After six days, samples were analyzed for levels of hydrogen peroxide using standard iodometric titration.

[3] = test system: lactic acid bacteria (LAB); experiment: Inactivation of LAB in dilute molasses at pH 5.0 in the presence of yeast Ethanol Red (Example 5); assay type: cell-based
Description: Cultures of lactic acid bacteria (LAB) were prepared as in Example 1 above. Molasses was diluted 1:3.1 with water as in previous examples. The fermenting yeast Ethanol Red was cultured as in example 1. Populations of lactic acid bacteria and yeasts were determined by dilution plating on MRS agar and YPD agar, respectively. Overnight cultures of LAB were mixed to prepare a bacterial cocktail and inoculated into molasses (diluted 1:3.1 with water) adjusted to pH 5.0 to give approximately 6.11 Log CFU/ml. Cultures of yeasts were added to each tube at a concentration of approximately 6.80 Log CFU/ml. […] The amount of UHP added was 1450 ppm. The amount of percarbonate added was 1812 ppm. Tubes were then incubated at 32° C. with agitation. […] Amphotericin inhibits the growth of yeast, facilitating enumeration of bacteria only.

[4] = before storage, duplicate samples
[5] = storage at 40° C. in dry oven, day 6, duplicate samples
[6] = storage at 40° C. in dry oven, day 14, duplicate samples

[Ca+2].[O-][O-] [Calcium peroxide, calcium peroxide]
CFU/ml LAB at hour indicated ([1]; molasses at pH 4.2, 197 ppm (69 ppm as H2O2), hour 2): 2.33 × 10^6 CFU/ml
CFU/ml LAB at hour indicated ([1]; molasses at pH 4.2, 197 ppm (69 ppm as H2O2), hour 24): 4.25 × 10^6 CFU/ml
CFU/ml LAB at hour indicated ([1]; molasses at pH 4.2, 393 ppm (138 ppm as H2O2), hour 2): 1.22 × 10^6 CFU/ml
CFU/ml LAB at hour indicated ([1]; molasses at pH 4.2, 393 ppm (138 ppm as H2O2), hour 24): 1.00 × 10^1 CFU/ml
CFU/ml LAB at hour indicated ([1]; molasses at pH 4.2, 590 ppm (207 ppm as H2O2), hour 2): 4.70 × 10^5 CFU/ml
CFU/ml LAB at hour indicated ([1]; molasses at pH 4.2, 590 ppm (207 ppm as H2O2), hour 24): <10 CFU/ml
CFU/ml LAB at hour indicated ([1]; molasses at pH 5.4, 197 ppm (69 ppm as H2O2), hour 2): 8.90 × 10^5 CFU/ml
CFU/ml LAB at hour indicated ([1]; molasses at pH 5.4, 197 ppm (69 ppm as H2O2), hour 24): 4.00 × 10^4 CFU/ml
CFU/ml LAB at hour indicated ([1]; molasses at pH 5.4, 393 ppm (138 ppm as H2O2), hour 2): 5.00 × 10^2 CFU/ml
CFU/ml LAB at hour indicated ([1]; molasses at pH 5.4, 393 ppm (138 ppm as H2O2), hour 24): below the detection limit
CFU/ml LAB at hour indicated ([1]; molasses at pH 5.4, 393 ppm (138 ppm as H2O2), hour 24, listed as Calcium percarbonate): <10 CFU/ml
CFU/ml LAB at hour indicated ([1]; molasses at pH 5.4, 590 ppm (207 ppm as H2O2), hour 2): 8.0×10^4 CFU/ml
CFU/ml LAB at hour indicated ([1]; molasses at pH 5.4, 590 ppm (207 ppm as H2O2), hour 2, listed as Calcium percarbonate): 8.00 × 10^4 CFU/ml
CFU/ml LAB at hour indicated ([1]; molasses at pH 5.4, 590 ppm (207 ppm as H2O2), hour 24): <10 CFU/ml
reductions in LAB ([1]; molasses pH 4.2, 197 ppm calcium peroxide, 2 hour): only slight reductions
reduction of LAB ([1]; molasses pH 4.2, 197 ppm calcium peroxide, 24 hours): approximately 1 log
reductions in LAB ([1]; molasses pH 4.2, 393 ppm calcium peroxide, 2 hour): only slight reductions
reduction of the population of LAB ([1]; molasses pH 4.2, 393 ppm calcium peroxide, 24 hours): more than 6 log units
reduction of the population of LAB ([1]; molasses pH 4.2, 590 ppm calcium peroxide, 2 hour): approximately 1 log
reduction of the population of LAB ([1]; molasses pH 4.2, 590 ppm calcium peroxide, 24 hours): more than 6 log units
% Remaining H2O2 Day 0 [2]: 100%
% Remaining H2O2 Day 6 [2]: 97%
% Remaining H2O2 Day 14 [2]: 97%
% H2O2 Day 0 [2, 4]: 34.71% and 34.73%
% H2O2 Day 6 [2, 5]: 33.66% and 33.60%
% H2O2 Day 14 [2, 6]: 33.62% and 33.57%
relative hydrogen peroxide retained during storage ([2]; storage at 40° C., day not given): 97%

[Mg+2].[O-][O-] [Magnesium peroxide, magnesium peroxide]
% Remaining H2O2 Day 0 [2]: 100%
% Remaining H2O2 Day 6 [2]: 100%
% H2O2 Day 0 [2, 4]: 10.66% and 10.72%
% H2O2 Day 6 [2, 5]: 10.66% and 10.68%
% H2O2 Day 14 [2, 6]: 10.64% and 10.65%

O=C([O-])[O-].O=C([O-])[O-].OO.OO.OO.[Na+].[Na+].[Na+].[Na+] [Sodium percarbonate (FB 400), sodium percarbonate]
% Remaining H2O2 Day 0 [2]: 100%
% Remaining H2O2 Day 6 [2]: 96%
% Remaining H2O2 Day 14 [2]: 96%
% H2O2 Day 0 [2, 4]: 23.81% and 23.66%
% H2O2 Day 6 [2, 5]: 22.80% and 22.74%
% H2O2 Day 14 [2, 6]: 22.80% and 22.67%

O=C([O-])[O-].O=C([O-])[O-].OO.OO.OO.[Na+].[Na+].[Na+].[Na+] [Sodium percarbonate (FB 400C), sodium percarbonate]
% Remaining H2O2 Day 0 [2]: 100%
% Remaining H2O2 Day 14 [2]: 96%
% H2O2 Day 0 [2, 4]: 26.34% and 26.25%
% H2O2 Day 6 [2, 5]: 25.37% and 25.45%
% H2O2 Day 14 [2, 6]: 25.35% and 25.27%

NC(N)=O.OO [Urea hydrogen peroxide, urea hydrogen peroxide, reference compound]
% H2O2 Day 0 [2, 4]: 34.53% and 34.56%
% Remaining H2O2 Day 0 [2, 4]: 100%
% H2O2 Day 0 ([2]; before storage, duplicate samples, listed as urea hydrogen peroxide): approximately 35%
% H2O2 Day 6 [2, 5]: 0.24% and 0.25%
% Remaining H2O2 Day 6 [2, 5]: <1%
% H2O2 Day 6 ([2]; storage at 40° C. in dry oven, day 6, duplicate samples, listed as urea hydrogen peroxide): below 1%
% H2O2 Day 14 [2, 6]: 0.08%
% Remaining H2O2 Day 14 [2, 6]: 0%
stability during storage (in words) ([2]; storage at 40° C., 6 and 14 days): not stable during storage
reduction of the population of LAB ([3]; 500 ppm as H2O2, 2 hours of incubation at 32° C., in presence of yeast): 3 log units
Log CFU/mL of LAB at hour indicated ([3]; 500 ppm as H2O2, hour 2, molasses pH 5.0, yeast approx. 6.80 Log CFU/ml, 32° C.): 3.36 Log CFU/mL

From patent publication US8759051B2, “Control of contaminant microorganisms in fermentation processes with peroxygen-releasing compounds” (E I du Pont de Nemours and Company, priority 2010, dated 2014)
